Test results published in US11198695B2, “Fused ring derivative having MGAT-2 inhibitory activity” (Shionogi & Co., Ltd., priority 2017, dated 2021).
In brackets after ≈: the same amount, converted by molar mass. Several values for one entry are separate records, joined by “and”; a condition that tells them apart may be missing. Identical values can stand only once. Like-named read-outs stand apart in the source and are kept apart here.

Key:
[1] = target: recombinant human MGAT2 (Homo sapiens (Human), UniProt Q3SYC2); experiment: Measurement of human MGAT2 inhibitory activity; type: biochemical
Outline: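 RapidFire ESI-MS read-out of the diolein/diolein-d5 peak ratio gave % inhibition, with no-enzyme and full-enzyme wells as 100% and 0%. Reactions ran 1 h at room temperature at pH 7.4 (phosphate, 2 mmol/L DTT), using Flag-tagged human MGAT2 membranes from Sf9 cells and a substrate solution of 30 μmol/L 2-oleoylglycerol and 10 μmol/L oleoyl-CoA.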

[2] = Metabolism stability test; type: in vitro ADME; conditions: human liver microsomes, 30 minutes, 37° C., NADPH, 0.5 μmol/L of test compound
Method: Using commercially available pooled human hepatic microsomes, the compound of the present invention was reacted for a constant time, a remaining rate was calculated by comparing a reacted sample and an unreacted sample, thereby, a degree of metabolism of the compound of the present invention in liver was assessed.
A reaction was performed (oxidative reaction) at 37° C. for 0 minute or 30 minutes in the presence of 1 mmol/L NADPH in 0.2 mL of a buffer (50 mmol/L Tris-HCl pH 7.4, 150 mmol/L potassium chloride, 10 mmol/L magnesium chloride) containing 0.5 mg protein/mL of human liver microsomes. After the reaction, 50 μL of the reaction solution was added to 100 μL of a methanol/acetonitrile=1/1 (v/v) solution, mixed and centrifuged at 3000 rpm for 15 minutes. The compound of the present invention in the supernatant was quantified by LC/MS/MS, and a remaining amount of the compound of the present invention after the reaction was calculated, letting a compound amount at 0 minute reaction time to be 100%. (Result) Remaining rate was shown at 0.5 μmol/L of test compound.

[3] = Solubility test (1% DMSO addition, pH 6.8 artificial intestinal juice); type: physicochemical; conditions: 16 hours at 25° C.; for solubility at 16 h: pH 6.8 artificial intestinal juice with 1% DMSO, kinetic from dmso stock
Method: The solubility of the compound of the present invention was determined under 1% DMSO addition conditions. 10 mmol/L solution of the compound was prepared with DMSO, and 6 μL of the solution of the compound of the present invention was added to 594 μL of pH 6.8 artificial intestinal juice (118 mL of 0.2 mol/L NaOH test solution and water were added to 250 mL of 0.2 mol/L potassium dihydrogen phosphate test solution to reach 1000 mL). The mixture was left standing for 16 hours at 25° C., and the mixture was vacuum-filtered. The filtrate was two-fold diluted with methanol/water=1/1 (V/V), and the compound concentration in the filtrate was measured with HPLC or LC/MS/MS by the absolute calibration method.

[4] = read-out: IC50 (concentration exhibiting 50% enzyme inhibition), Table 53
[5] = read-out: IC50 (concentration exhibiting 50% enzyme inhibition), Table 52

Chain of recombinant human MGAT2 (Q3SYC2 whole entry): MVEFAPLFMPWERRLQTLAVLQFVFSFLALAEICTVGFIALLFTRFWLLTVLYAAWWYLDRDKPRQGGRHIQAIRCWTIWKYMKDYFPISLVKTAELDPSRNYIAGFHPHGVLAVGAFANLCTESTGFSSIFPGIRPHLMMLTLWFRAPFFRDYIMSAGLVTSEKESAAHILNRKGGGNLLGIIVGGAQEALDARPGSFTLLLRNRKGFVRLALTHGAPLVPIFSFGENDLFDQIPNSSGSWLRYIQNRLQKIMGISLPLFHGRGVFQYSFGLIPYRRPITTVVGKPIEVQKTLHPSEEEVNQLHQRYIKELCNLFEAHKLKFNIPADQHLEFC

SMILES | IC50 [1, 4] | Remaining rate (%) [2] | solubility at 16 h [3] | IC50 [1, 5] | Solubility [3]
Cc1ccc(-n2nc3c(c2NC(=O)CS(C)(=N)=O)C(=O)N[C@@]2(CCc4cc(OCC(F)(F)F)ccc42)C3)nc1 (single isomer, unassigned) [II-276] | 2.2 nM | 98.2% | > 50 µM | – | –
CS(=O)(=O)CC(=O)Nc1c2c(nn1CCC1CC1)C[C@]1(CCc3cc(OCC(F)(F)F)ccc31)NC2=O [Compound I-8] | – | 102% | > 50 µM | – | –
CS(=O)(=O)CC(=O)Nc1c2c(nn1-c1ccccn1)C[C@]1(CCc3cc(OCCCC(F)(F)F)ccc31)NC2=O [Compound I-23] | – | 98.7% | 48.2 µM (≈ 27.8 µg/mL) | – | –
O=C1N[C@@]2(CCc3cc(OCCCC(F)(F)F)ccc32)Cc2nn(CCC3CC3)c(-c3nn[nH]n3)c21 [Compound I-24] | – | 78.2% | – | 8.82 nM | >50 µM
CS(=O)(=O)CC(=O)Nc1c2c(nn1-c1ccc(C#N)cn1)C[C@]1(CCc3cc(N4CC(F)(F)C4)ccc31)NC2=O [Compound I-67] | – | 89% | > 50 µM | 7 nM | –
CS(=O)(=O)CC(=O)Nc1c2c(nn1-c1ccc(C#N)cn1)C[C@@]1(CCc3cc(OCC(F)(F)F)ccc31)NC2=O [Compound I-167] | – | 89% | > 50 µM | 3.3 nM | –
CS(=O)(=O)CC(=O)Nc1c2c(nn1-c1ccc(C#N)cn1)C[C@](c1ccc(OCC(F)(F)F)cc1F)(C(F)(F)F)NC2=O [Compound I-170] | – | 100% | > 50 µM | 5.1 nM | –
CS(=O)(=O)CC(=O)Nc1c2c(nn1-c1ccc(C#N)cn1)C[C@]1(CCc3cc(OCC(F)(F)F)ccc31)NC2=O [Compound I-190] | – | 96.6% | > 50 µM | – | –
O=C1N[C@@]2(CCOc3cc(OCCCC(F)(F)F)ccc32)Cc2nn(CCC3CC3)c(-c3nn[nH]n3)c21 [Compound I-200] | – | 94% | > 50 µM | 5.6 nM | –
CS(=O)(=O)CC(=O)Nc1c2c(nn1CCCC(F)(F)F)C[C@@]1(CCc3cc(OCC(F)(F)F)ccc31)NC2=O [Compound I-212] | – | 62.6% | > 50 µM | – | –
Cc1ccc(-n2nc3c(c2NC(=O)CS(C)(=O)=O)C(=O)N[C@@]2(CCc4cc(OCC(F)(F)F)ccc42)C3)nc1 [Compound I-236] | – | 87.6% | > 50 µM | – | –
Cc1ccc(-n2nc3c(c2NC(=O)CS(C)(=O)=O)C(=O)N[C@@]2(CCOc4cc(OCC(F)(F)F)ccc42)C3)nc1 [Compound I-275] | – | 91.8% | > 50 µM | – | –
CS(=O)(=O)CC(=O)Nc1c2c(nn1CCCOC(F)(F)F)C[C@@]1(CCc3cc(OCC(F)(F)F)cc(F)c31)NC2=O [II-93] | – | 103% | > 50 µM | – | –
CS(=O)(=O)CC(=O)Nc1c2c(nn1CCCOC(F)(F)F)C[C@@]1(CCOc3cc(OCC(F)(F)F)ccc31)NC2=O [II-121] | 2.91 nM | 89.7% | – | – | >50 µM
Cc1ccc(-n2nc3c(c2NC(=O)CS(C)(=O)=O)C(=O)N[C@@]2(CCOc4cc(OCC(C)(F)F)ccc42)C3)nc1 [II-151] | – | 82.6% | > 50 µM | – | –
CS(=O)(=O)CC(=O)Nc1c2c(nn1-c1ccc(C(F)F)cc1)C[C@]1(CCc3cc(OCC(F)(F)F)ccc31)NC2=O [II-174] | – | 99.9% | 32.4 µM (≈ 19.4 µg/mL) | – | –
Cc1ccc(-n2nc3c(c2C(=O)NS(=O)(=O)C2CC2)C(=O)N[C@@]2(CCc4cc(OCC(F)(F)F)ccc42)C3)nc1 [II-202] | 9.13 nM and < 1 nM | 98.7% | > 50 µM | – | –
CS(=O)(=O)CC(=O)Nc1c2c(nn1-c1ccc(F)c(F)c1)C[C@]1(CCOc3cc(CCC(F)(F)F)ccc31)NC2=O [II-225] | – | 104% | 45.1 µM (≈ 27 µg/mL) | – | –
Cc1cc(-n2nc3c(c2NC(=O)CS(C)(=O)=O)C(=O)N[C@@]2(CCOc4cc(OCCCC(F)(F)F)ccc42)C3)no1 [II-233] | 0.224 nM | 94.7% | > 50 µM | – | –
Cc1ccc(-n2nc3c(c2NC(=O)C2CS(=O)(=O)C2)C(=O)N[C@@]2(CCOc4cc(OCC(F)(F)F)ccc42)C3)nc1 [II-270] | 1.26 nM | 99.9% | > 50 µM | – | –
CS(=O)(=O)CC(=O)Nc1c2c(nn1-c1ccc(F)cn1)C[C@]1(CCOc3cc(OCC(F)(F)F)ccc31)NC2=O [II-295] | < 1 nM | 102% | > 50 µM | – | –
Cc1cc(-n2nc3c(c2NC(=O)CS(C)(=O)=O)C(=O)N[C@](C)(c2ccc(CCC(F)(F)F)cc2F)C3)no1 [II-300] | < 1 nM | – | – | – | –
CS(=O)(=O)CC(=O)Nc1c2c(nn1-c1ccc(F)cc1)CC1(CN(c3ccc(C(F)(F)F)cc3)C1)NC2=O [II-301] | 15.9 nM | – | – | – | –
Cc1ccc(-n2nc3c(c2NC(=O)CS(C)(=O)=O)C(=O)N[C@@]2(CCc4cc(C5CC5)ccc42)C3)nn1 [II-302] | 3.61 nM | – | – | – | –
Cc1cc(-n2nc3c(c2NC(=O)CS(C)(=O)=O)C(=O)N[C@@]2(CCc4cc(C5CC5)ccc42)C3)nn1C [II-303] | 4.42 nM | – | – | – | –
Cc1ccc(-n2nc3c(c2NC(=O)CS(C)(=O)=O)C(=O)N[C@@]2(CCc4cc(CCC(F)(F)F)ccc42)C3)nn1 [II-304] | 1.39 nM | – | – | – | –
Cc1cc(-n2nc3c(c2NC(=O)CS(C)(=O)=O)C(=O)N[C@](C)(c2ccc(OCCCC(F)(F)F)cc2F)C3)no1 [II-305] | 1 nM | – | – | – | –
Cc1cc(-n2nc3c(c2NC(=O)CS(C)(=O)=O)C(=O)N[C@@]2(CCc4cc(Cl)ccc42)C3)nn1C [II-306] | 11.3 nM | – | – | – | –
Cc1ccc(-n2nc3c(c2NC(=O)CS(C)(=O)=O)C(=O)N[C@@]2(CCc4cc(Cl)ccc42)C3)nn1 [II-307] | 6.19 nM | – | – | – | –
Cc1ccc(-n2nc3c(c2NC(=O)CS(C)(=N)=O)C(=O)NC2(C3)CN(c3ccc(C(F)(F)F)cc3)C2)nc1 (centres unmarked) [II-308] | 6.58 nM | – | – | – | –
